Results as given in patent US4504463A, “Process for making a lyophilized product for use in skeletal imaging” (Mallinckrodt, Inc., priority 1982, dated 1985).

Test: Skeletal imaging with scintillation camera after intravenous injection
Assay type: in vivo, adult human
Conditions: for results when used instead of the disodium salt of HMDP: carrier replaced in Example I kit; for results when used instead of AMDP: carrier replaced in Example II kit
Experimental: An imaging agent is prepared using this kit by adding about 5 ml of a pertechnetate-Tc99m physiological saline with an activity of about 75 mCi, from a commercial technetium source. The vial is agitated until the kit components are dissolved. About 1 ml of the agent is slowly injected, over a period of about 30 seconds, into an adult human subject weighing about 75 kg.

For `CC(O)(P(=O)(O)O)P(=O)(O)O` [EHDP, ethane-1-hydroxy-1,1-diphosphonic acid], which “results when used instead of the disodium salt of HMDP” value (shortened to “results when used instead … of HMDP”) is on record?
Its value is “substantially similar results”.

With `O=P(O)(O)C(O)P(=O)(O)O` [HMDP, methanehydroxydiphosphonic acid] as the compound, how does the “results when used instead … of HMDP” value read?
Its value is “substantially similar results”.

For `O=P(O)(O)CP(=O)(O)O` [MDP, methanediphosphonic acid], which “results when used instead … of HMDP” value is on record?
The value was “substantially similar results”.

For `NCC(O)(P(=O)(O)O)P(=O)(O)O` [ethane-1-hydroxy-2-amino-1,1-diphosphonic acid], which “results when used instead of AMDP” value is on record?
The value was “substantially similar results”.

With `OCc1cc(O)ccc1O` [gentisyl alcohol] as the compound, how does the “results when used instead of gentisic acid” value (stabilizer replaced in Example I kit) read?
Its value is “substantially similar results”.

With `Oc1ccc(O)cc1` [hydroquinone] as the compound, how does the “results when used instead of gentisic acid” value (in vivo) read?
Its value is “substantially similar results”.

Which “results when used instead of AMDP” value does the source give for `CN(C)C(P(=O)(O)O)P(=O)(O)O` [methane-N,N-dimethylaminodiphosphonic acid] here?
The value was “substantially similar results”.

For `CNC(P(=O)(O)O)P(=O)(O)O` [methane-N-methylaminodiphosphonic acid], which “results when used instead of AMDP” value is on record?
Its value is “substantially similar results”.

With `NC(O)(P(=O)(O)O)P(=O)(O)O` [methaneaminohydroxydiphosphonic acid] as the compound, how does the “results when used instead of AMDP” value read?
The value was “substantially similar results”.

Which “results when used with or instead of stannous chloride” value (reductant replaced or added in Example II kit) does the source give for `O=S(=O)([O-])[O-].[Sn+2]` [stannous sulfate] here?
The value was “substantially similar results”.

With stannous fluoride as the compound, how does the “results when used with or instead of stannous chloride” value (in vivo) read?
The value was “substantially similar results”.
